Results as given in ChEMBL document CHEMBL1144942, “Enantioselective responses to a phosphorothioate analogue of lysophosphatidic acid with LPA3 receptor-selective agonist activity” (J Med Chem, 2003).

Experiments:
OVCAR-3 = experiment: Agonistic activity in human OVCAR-3 (ovarian cancer cells); assay type: functional, cell-based
HT-29 = experiment: Agonistic activity in human HT-29 colon cancer cells; assay type: functional, cell-based

SMILES	EC50 (OVCAR-3) [µM]	EC50 (HT-29) [µM]
CCCCCCCCCCCCCCCCCC(=O)OC[C@H](COP(O)(O)=S)OC	0.009	< 1000
CCCCCCCCCCCCCCCCCC(=O)OC[C@@H](COP(O)(O)=S)OC	0.0465	< 1000
